Data from ChEMBL document CHEMBL4190187, “Discovery of pyrazolopyrimidine derivatives as novel inhibitors of ataxia telangiectasia and rad3 related protein (ATR)” (Bioorg Med Chem Lett, 2017).

Experiments:
[1] = biological target: Serine/threonine-protein kinase ATR (Homo sapiens, UniProt Q13535); test: Inhibition of human recombinant FLAG-tagged full length ATR expressed in mammalian cell line co-expressing human recombinant cMyc-tagged full length ATRIP at 1 uM using GST-cMyc-p53 as substrate after 40 mins in presence of [gamma-33P]ATP by scintillation counting method
[2] = biological target: Cytoplasmic tyrosine-protein kinase BMX (Homo sapiens) (UniProt P51813); test: Inhibition of recombinant full-length human BMX at 1 uM using poly(Glu,Tyr) 4:1 as substrate after 40 mins in presence of [gamma-33P]ATP by scintillation counting method
[3] = biological target: Death-associated protein kinase 1 (Homo sapiens) (UniProt P53355); test: Inhibition of recombinant human DAPK1 (1 to 296 residues) at 1 uM using KKLNRTLSFAEPG as substrate after 40 mins in presence of [gamma-33P]ATP by scintillation counting method
[4] = test system: Hepatocyte growth factor receptor (Homo sapiens), P08581 [D1246N]; test: Inhibition of recombinant human Met D1246N mutant (974 to end residues) at 1 uM using KKKGQEEEYVFIE as substrate after 40 mins in presence of [gamma-33P]ATP by scintillation counting method
[5] = biological target: Serine/threonine-protein kinase A-Raf (Homo sapiens) (UniProt P10398); test: Inhibition of recombinant human A-Raf (273 to end residues) at 1 uM using myelin basic protein as substrate after 40 mins in presence of [gamma-33P]ATP by scintillation counting method
[6] = test system: Serine/threonine-protein kinase B-raf (Homo sapiens), P15056 [V600E]; test: Inhibition of recombinant human B-raf V599E mutant (416 to end residues) at 1 uM using myelin basic protein as substrate after 40 mins in presence of [gamma-33P]ATP by scintillation counting method
[7] = biological target: MAP kinase-activated protein kinase 2 (Homo sapiens) (UniProt P49137); test: Inhibition of recombinant human MAPKAPK2 (46 to end residues) at 1 uM using KKLNRTLSVA as substrate after 40 mins in presence of [gamma-33P]ATP by scintillation counting method
[8] = biological target: Dual specificity mitogen-activated protein kinase kinase 7 (Homo sapiens) (UniProt O14733); test: Inhibition of recombinant human MKK7beta (2 to end residues) at 1 uM using inactive JNK171 as substrate after 40 mins in presence of [gamma-33P]ATP by scintillation counting method
[9] = biological target: 5'-AMP-activated protein kinase catalytic subunit alpha-2 (Homo sapiens) (UniProt P54646); test: Inhibition of recombinant full-length human AMPKalpha2 at 1 uM using AMARAASAAALARRR as substrate after 40 mins in presence of [gamma-33P]ATP by scintillation counting method
[10] = biological target: Serine/threonine-protein kinase Nek9 (Homo sapiens) (UniProt Q8TD19); test: Inhibition of recombinant human NEK9 (1 to 324 residues) at 1 uM using myelin basic protein as substrate after 40 mins in presence of [gamma-33P]ATP by scintillation counting method
[11] = biological target: Vascular endothelial growth factor receptor 1 (Homo sapiens) (UniProt P17948); test: Inhibition of recombinant human Flt1 (783 to end residues) at 1 uM using KKKSPGEYVNIEFG as substrate after 40 mins in presence of [gamma-33P]ATP by scintillation counting method
[12] = test system: Proto-oncogene tyrosine-protein kinase Src (Homo sapiens), P12931 [T341M]; test: Inhibition of recombinant full-length human Src T341M mutant at 1 uM using GGEEEEYFELVKKKK as substrate after 40 mins in presence of [gamma-33P]ATP by scintillation counting method
[13] = test system: Serine/threonine-protein kinase Chk2 (Homo sapiens), O96017 [I157T]; test: Inhibition of recombinant human CHK2 I157T mutant (5 to end residues) at 1 uM using KKKVSRSGLYRSPSMPENLNRPR as substrate after 40 mins in presence of [gamma-33P]ATP by scintillation counting method
[14] = biological target: PI3K p110 alpha/p85 alpha (Mus musculus) (UniProt P26450+P42337); test: Inhibition of recombinant full-length mouse p110a E545K mutant/p85a at 1 uM using phosphatidylinositol 4,5-bisphosphate as substrate after 40 mins in presence of [gamma-33P]ATP by scintillation counting method; type: protein-complex assay
[15] = biological target: Myosin-IIIb (Homo sapiens) (UniProt Q8WXR4); test: Inhibition of recombinant human MYO3B (1 to 326 residues) at 1 uM using RLGRDKYKTLRQIRQ as substrate after 40 mins in presence of [gamma-33P]ATP by scintillation counting method
[16] = biological target: Proto-oncogene tyrosine-protein kinase Src (Homo sapiens) (UniProt P12931); test: Inhibition of recombinant full-length human cSRC at 1 uM using KVEKIGEGTYGVVYK (Cdc2 peptide) as substrate after 40 mins in presence of [gamma-33P]ATP by scintillation counting method
[17] = biological target: Serine/threonine-protein kinase WNK2 (Homo sapiens) (UniProt Q9Y3S1); test: Inhibition of recombinant human WNK2 (166 to 489 residues) at 1 uM using myelin basic protein as substrate after 40 mins in presence of [gamma-33P]ATP by scintillation counting method
[18] = biological target: Tyrosine-protein kinase Lck (Homo sapiens) (UniProt P06239); test: Inhibition of recombinant full-length human activated Lck at 1 uM using KVEKIGEGTYGVVYK as substrate after 40 mins in presence of [gamma-33P]ATP by scintillation counting method
[19] = biological target: Tyrosine-protein kinase ABL2 (Mus musculus) (UniProt Q4JIM5); test: Inhibition of A562 insertion recombinant mouse ARG (27 to end residues) at 1 uM using EAIYAAPFAKKK as substrate after 40 mins in presence of [gamma-33P]ATP by scintillation counting method
[20] = biological target: Dual specificity protein kinase CLK4 (Homo sapiens) (UniProt Q9HAZ1); test: Inhibition of recombinant human CLK4 (128 to end residues) at 1 uM using YRRAAVPPSPSLSRHSSPHQS(p)EDEEE as substrate after 40 mins in presence of [gamma-33P]ATP by scintillation counting method
[21] = biological target: Glycogen synthase kinase-3 alpha (Homo sapiens) (UniProt P49840); test: Inhibition of recombinant human GSK3alpha (2 to end residues) at 1 uM using YRRAAVPPSPSLSRHSSPHQS(p)EDEEE (phospho GS2 peptide) as substrate after 40 mins in presence of [gamma-33P]ATP by scintillation counting method
[22] = biological target: Serine/threonine-protein kinase pim-1 (Homo sapiens) (UniProt P11309); test: Inhibition of recombinant full-length human PIM1 at 1 uM using KKRNRTLTV as substrate after 40 mins in presence of [gamma-33P]ATP by scintillation counting method
[23] = test system: Proto-oncogene tyrosine-protein kinase receptor Ret (Homo sapiens), P07949 [V804M]; test: Inhibition of recombinant human RET V804M mutant (658 to end residues) at 1 uM using KKKVSRSGLYRSPSMPENLNRPR as substrate after 40 mins in presence of [gamma-33P]ATP by scintillation counting method
Chain of Proto-oncogene tyrosine-protein kinase receptor Ret (Homo sapiens), P07949 [V804M] (P07949 whole entry V804M): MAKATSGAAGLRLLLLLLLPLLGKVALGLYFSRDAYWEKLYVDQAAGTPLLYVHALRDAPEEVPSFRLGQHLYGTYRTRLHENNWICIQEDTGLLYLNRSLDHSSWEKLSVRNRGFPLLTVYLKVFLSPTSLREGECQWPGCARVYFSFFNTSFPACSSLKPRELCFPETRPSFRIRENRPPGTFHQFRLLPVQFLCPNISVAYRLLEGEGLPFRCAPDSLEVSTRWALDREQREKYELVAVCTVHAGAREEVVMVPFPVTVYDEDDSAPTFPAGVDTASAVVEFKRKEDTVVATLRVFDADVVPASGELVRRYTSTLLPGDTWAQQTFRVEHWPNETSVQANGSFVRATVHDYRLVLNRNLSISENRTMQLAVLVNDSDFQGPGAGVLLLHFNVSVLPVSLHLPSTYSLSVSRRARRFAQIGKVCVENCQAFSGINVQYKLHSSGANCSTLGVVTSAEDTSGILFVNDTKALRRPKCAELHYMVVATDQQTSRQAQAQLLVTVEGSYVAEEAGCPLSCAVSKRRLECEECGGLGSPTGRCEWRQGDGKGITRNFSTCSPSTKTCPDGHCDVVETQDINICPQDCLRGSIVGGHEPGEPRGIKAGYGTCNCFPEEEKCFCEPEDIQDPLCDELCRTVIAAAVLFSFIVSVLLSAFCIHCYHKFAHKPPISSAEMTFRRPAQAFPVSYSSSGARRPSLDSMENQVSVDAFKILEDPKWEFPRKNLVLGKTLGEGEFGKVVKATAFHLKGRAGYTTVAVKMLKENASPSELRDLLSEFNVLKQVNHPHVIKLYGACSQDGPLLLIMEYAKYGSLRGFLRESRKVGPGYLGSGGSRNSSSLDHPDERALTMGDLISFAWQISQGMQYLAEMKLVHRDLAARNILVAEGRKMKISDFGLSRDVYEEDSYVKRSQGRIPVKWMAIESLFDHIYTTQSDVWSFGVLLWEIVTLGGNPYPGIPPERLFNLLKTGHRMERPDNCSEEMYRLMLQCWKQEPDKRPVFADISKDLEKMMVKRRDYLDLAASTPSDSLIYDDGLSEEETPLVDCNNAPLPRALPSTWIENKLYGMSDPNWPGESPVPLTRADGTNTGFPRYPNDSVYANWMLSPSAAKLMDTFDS

Chain of Serine/threonine-protein kinase B-raf (Homo sapiens), P15056 [V600E] (P15056 whole entry V600E): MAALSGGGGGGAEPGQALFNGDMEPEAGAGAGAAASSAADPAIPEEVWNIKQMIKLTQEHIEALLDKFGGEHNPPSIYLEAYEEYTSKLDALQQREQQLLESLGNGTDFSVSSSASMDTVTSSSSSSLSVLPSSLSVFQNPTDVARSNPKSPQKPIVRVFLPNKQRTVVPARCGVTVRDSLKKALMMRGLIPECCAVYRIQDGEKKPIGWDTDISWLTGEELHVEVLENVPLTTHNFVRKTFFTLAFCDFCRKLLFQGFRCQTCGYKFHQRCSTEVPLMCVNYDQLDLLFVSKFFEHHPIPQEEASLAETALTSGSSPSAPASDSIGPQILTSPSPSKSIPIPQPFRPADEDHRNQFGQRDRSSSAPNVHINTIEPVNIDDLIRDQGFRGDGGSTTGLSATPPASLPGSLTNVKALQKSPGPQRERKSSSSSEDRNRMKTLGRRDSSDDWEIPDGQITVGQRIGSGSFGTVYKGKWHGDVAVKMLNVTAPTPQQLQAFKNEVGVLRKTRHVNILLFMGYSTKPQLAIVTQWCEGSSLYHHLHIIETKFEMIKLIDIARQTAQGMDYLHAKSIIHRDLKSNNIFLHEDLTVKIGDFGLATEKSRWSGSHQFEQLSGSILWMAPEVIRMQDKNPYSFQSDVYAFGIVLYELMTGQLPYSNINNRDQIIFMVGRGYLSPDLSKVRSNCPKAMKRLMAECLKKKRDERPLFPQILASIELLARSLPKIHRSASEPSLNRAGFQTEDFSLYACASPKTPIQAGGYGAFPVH
Chain of Serine/threonine-protein kinase Nek9 (Homo sapiens) (Q8TD19 whole entry, the tested form may be a part): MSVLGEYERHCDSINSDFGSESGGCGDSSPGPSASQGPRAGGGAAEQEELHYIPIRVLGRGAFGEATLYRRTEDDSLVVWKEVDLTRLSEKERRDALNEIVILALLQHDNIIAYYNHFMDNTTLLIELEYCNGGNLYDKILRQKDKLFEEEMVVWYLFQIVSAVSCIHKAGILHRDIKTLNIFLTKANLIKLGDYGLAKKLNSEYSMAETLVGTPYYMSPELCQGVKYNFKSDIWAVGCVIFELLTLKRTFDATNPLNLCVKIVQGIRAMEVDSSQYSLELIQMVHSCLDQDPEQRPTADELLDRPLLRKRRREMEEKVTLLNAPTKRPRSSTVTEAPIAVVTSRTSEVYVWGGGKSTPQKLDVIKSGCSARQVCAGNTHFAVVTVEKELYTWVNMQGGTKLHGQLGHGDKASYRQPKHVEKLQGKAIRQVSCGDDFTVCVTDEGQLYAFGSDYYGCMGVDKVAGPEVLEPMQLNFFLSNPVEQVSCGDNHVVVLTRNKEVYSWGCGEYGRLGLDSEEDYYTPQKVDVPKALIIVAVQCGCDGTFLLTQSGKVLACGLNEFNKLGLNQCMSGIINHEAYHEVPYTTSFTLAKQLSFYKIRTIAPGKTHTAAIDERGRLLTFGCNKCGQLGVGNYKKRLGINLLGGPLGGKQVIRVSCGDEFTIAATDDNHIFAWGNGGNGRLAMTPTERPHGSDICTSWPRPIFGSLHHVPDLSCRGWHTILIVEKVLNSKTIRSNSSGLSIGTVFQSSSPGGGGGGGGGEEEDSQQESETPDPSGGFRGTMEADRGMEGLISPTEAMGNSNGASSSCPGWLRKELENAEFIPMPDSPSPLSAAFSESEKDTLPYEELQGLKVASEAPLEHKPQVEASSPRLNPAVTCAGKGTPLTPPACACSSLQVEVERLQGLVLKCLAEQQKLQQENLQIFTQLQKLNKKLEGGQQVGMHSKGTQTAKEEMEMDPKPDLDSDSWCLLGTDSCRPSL
Chain of Cytoplasmic tyrosine-protein kinase BMX (Homo sapiens) (P51813 whole entry, the tested form may be a part): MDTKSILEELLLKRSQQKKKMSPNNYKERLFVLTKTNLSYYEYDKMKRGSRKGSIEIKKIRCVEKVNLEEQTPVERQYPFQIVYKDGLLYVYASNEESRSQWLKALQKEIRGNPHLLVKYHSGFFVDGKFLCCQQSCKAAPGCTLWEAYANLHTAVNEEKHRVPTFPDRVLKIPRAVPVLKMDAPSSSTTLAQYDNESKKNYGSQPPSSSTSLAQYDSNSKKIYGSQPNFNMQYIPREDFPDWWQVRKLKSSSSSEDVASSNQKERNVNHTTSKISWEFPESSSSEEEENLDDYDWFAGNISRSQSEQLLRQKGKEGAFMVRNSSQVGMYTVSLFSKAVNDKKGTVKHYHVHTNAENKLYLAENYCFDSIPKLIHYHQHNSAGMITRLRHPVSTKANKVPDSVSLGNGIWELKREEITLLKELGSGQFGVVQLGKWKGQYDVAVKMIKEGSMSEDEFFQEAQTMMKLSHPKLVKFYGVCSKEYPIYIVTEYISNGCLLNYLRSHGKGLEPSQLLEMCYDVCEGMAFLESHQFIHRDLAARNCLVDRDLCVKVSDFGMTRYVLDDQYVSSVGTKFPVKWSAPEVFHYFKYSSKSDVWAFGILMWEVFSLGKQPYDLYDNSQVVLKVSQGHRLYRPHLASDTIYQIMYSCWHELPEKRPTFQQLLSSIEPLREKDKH
Chain of Serine/threonine-protein kinase A-Raf (Homo sapiens) (P10398 whole entry): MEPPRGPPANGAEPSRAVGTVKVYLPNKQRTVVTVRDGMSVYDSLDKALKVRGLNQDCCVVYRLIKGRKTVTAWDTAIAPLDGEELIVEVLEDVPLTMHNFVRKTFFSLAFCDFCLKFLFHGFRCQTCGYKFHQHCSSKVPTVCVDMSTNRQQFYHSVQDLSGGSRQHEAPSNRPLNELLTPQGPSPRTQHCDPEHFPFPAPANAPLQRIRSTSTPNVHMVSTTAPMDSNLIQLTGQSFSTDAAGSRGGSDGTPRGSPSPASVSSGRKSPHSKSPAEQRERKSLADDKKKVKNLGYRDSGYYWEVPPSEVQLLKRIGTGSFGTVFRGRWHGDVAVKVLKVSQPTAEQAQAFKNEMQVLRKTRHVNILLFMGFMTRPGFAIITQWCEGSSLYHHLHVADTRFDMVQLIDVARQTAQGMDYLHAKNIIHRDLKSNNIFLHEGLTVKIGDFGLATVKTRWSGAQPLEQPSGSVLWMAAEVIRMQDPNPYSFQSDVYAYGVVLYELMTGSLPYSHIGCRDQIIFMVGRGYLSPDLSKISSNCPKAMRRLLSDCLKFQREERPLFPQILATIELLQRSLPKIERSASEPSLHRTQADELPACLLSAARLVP
Chain of Proto-oncogene tyrosine-protein kinase Src (Homo sapiens), P12931 [T341M] (P12931 whole entry T341M, looked up): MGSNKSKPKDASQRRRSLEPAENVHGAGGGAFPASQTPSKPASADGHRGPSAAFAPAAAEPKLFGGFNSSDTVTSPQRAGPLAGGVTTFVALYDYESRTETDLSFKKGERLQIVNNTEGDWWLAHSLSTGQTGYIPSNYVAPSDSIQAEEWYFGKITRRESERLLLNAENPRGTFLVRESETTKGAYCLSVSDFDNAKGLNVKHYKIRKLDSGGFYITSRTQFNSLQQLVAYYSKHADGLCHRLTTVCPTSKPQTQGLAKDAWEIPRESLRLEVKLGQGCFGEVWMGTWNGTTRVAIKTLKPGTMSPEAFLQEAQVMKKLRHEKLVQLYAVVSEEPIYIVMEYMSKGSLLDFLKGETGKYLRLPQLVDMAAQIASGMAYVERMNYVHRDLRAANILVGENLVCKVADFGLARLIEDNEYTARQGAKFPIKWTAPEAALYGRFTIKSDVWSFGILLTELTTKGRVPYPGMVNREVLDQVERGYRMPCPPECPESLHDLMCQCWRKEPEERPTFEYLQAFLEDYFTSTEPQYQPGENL
Chain of Serine/threonine-protein kinase pim-1 (Homo sapiens) (P11309 whole entry, looked up): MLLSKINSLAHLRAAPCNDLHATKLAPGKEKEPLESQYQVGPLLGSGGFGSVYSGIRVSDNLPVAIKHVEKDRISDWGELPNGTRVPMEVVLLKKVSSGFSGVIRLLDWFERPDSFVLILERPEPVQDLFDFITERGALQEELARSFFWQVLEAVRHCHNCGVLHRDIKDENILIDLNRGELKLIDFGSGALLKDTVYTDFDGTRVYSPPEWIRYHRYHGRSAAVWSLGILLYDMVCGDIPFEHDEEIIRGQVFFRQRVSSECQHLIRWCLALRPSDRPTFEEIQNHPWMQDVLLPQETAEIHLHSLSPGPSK

Structure (SMILES): CS(=O)(=O)c1ccc(-n2nc(-c3cnc4[nH]ccc4c3)c3c(N)ncnc32)cc1
- inhibition [1]: 96%
- inhibition [2]: 47%
- inhibition [3]: -2%
- inhibition [4]: 3%
- inhibition [5]: -10%
- inhibition [6]: 93%
- inhibition [7]: -4%
- inhibition [8]: -4%
- inhibition [9]: -9%
- inhibition [10]: 11%
- inhibition [11]: 59%
- inhibition [12]: 7%
- inhibition [13]: -2%
- inhibition [14]: 11%
- inhibition [15]: 5%
- inhibition [16]: 53%
- inhibition [17]: 23%
- inhibition [18]: 38%
- inhibition [19]: 69%
- inhibition [20]: 11%
- inhibition [21]: 17%
- inhibition [22]: -2%
- inhibition [23]: 14%
